The values below come from PMC10023787, “Trio-pharmacophore DNA-encoded chemical library for simultaneous selection of fragments and linkers” (Nature Communications, 2023).

Like-named read-outs stand apart in the source and are kept apart here.

What is called IC50 is the concentration needed to halve the response being measured.

The target of one test is T1, MMP-2 (Homo sapiens, UniProt P08253).
T1 construct: purchased Sino Biological 10082-HNAH
T1 sequence (P08253 110-660): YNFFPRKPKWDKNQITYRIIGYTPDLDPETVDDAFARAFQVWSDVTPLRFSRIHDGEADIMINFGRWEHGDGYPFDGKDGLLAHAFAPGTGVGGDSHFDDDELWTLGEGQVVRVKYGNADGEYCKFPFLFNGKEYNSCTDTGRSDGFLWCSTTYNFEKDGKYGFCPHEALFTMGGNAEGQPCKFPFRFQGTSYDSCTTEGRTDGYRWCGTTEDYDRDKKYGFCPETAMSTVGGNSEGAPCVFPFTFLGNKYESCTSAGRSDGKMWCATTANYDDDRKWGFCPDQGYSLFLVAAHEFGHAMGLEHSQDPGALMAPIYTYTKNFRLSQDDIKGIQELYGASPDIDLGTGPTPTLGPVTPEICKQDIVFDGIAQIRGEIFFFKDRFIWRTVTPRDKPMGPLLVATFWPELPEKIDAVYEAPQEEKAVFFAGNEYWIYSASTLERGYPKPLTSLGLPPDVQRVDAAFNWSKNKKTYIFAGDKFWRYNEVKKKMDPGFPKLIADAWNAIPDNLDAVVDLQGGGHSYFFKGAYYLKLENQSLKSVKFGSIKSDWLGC
Nature of the test: MMP-2 inhibition assay (fluorogenic peptide substrate). The format is biochemical. Here is the method:
(§1) The inhibition by the small molecule compounds against MMP-2/MMP-9 was measured using an assay probing the enzyme proteolytic activity on the substrate DNP-Pro-Leu-Gly-Met-Trp-Ser-Arg (Enzo Life Sciences, USA). All assays were performed in the assay buffer containing 50 mM Tris, 100 mM NaCl. 5 mM CaCl2, and 0.1% Brij 35, pH 7.5. Human proMMP-2 and proMMP-9 were purchased from Sino biological (Germany). The proMMPs were activated by 1 mM APMA in the assay buffer at 37 °C for 2 h. After activation, MMP-2 was diluted to 6.5 nM of final assay concentration, and MMP-9 was diluted by the buffer to reach 10 nM of final assay concentration. In each well, 49 μl of enzyme solution was incubated with 1 μl of compounds of series of concentration (nM-mM in DMSO) at RT for 30 min. 2 μl of the FRET substrate was added right before the measurement at a final concentration of 25 μM. The rate of hydrolysis was monitored by quantifying the emission at 360 nm (ex: 280 nm). The emission was measured with intervals of the 30 s for 30 min with Synergy H1 Plate Reader (Agilent, USA). The measurements were done in triplicate. […] Then, curves were plotted as a function of the concentration of the inhibitor against the relative enzyme activity. Vmax was derived from the detected […] signal for each concentration and logistic fitting was performed to obtain IC50 values using Origin 2019b (OriginLab).

Another test concerns the target T2, MMP-9 (Homo sapiens, UniProt P14780).
T2 construct: purchased Sino Biological 10327-HNAH
Nature of the test: MMP-9 inhibition assay (fluorogenic peptide substrate). The class given is biochemical. Details: remaining enzyme activity (% of control): scale not given here. Here is the method:
as §1

[1] abbreviates: mean ± SE; n.d: not detected; Fig. 5e prints no unit, µM; read-out: IC50.
[2] abbreviates: mean ± SE; n.d: not detected; Fig. 5d unit inferred, µM; read-out: IC50.
The mark [3] stands for this setting: Figure 5d; fragment combination joined by linker; n.d: not detected; read-out: MMP2 IC50.
[4] abbreviates: Figure 5d; fragment combination joined by linker; n.d: not detected; read-out: MMP9 IC50.
[5] abbreviates: MMP-2; concentration 1219.00 µM.
[6] abbreviates: MMP-9; concentration 1219.00 µM.

T2 sequence (P14780 107-707 limits assumed): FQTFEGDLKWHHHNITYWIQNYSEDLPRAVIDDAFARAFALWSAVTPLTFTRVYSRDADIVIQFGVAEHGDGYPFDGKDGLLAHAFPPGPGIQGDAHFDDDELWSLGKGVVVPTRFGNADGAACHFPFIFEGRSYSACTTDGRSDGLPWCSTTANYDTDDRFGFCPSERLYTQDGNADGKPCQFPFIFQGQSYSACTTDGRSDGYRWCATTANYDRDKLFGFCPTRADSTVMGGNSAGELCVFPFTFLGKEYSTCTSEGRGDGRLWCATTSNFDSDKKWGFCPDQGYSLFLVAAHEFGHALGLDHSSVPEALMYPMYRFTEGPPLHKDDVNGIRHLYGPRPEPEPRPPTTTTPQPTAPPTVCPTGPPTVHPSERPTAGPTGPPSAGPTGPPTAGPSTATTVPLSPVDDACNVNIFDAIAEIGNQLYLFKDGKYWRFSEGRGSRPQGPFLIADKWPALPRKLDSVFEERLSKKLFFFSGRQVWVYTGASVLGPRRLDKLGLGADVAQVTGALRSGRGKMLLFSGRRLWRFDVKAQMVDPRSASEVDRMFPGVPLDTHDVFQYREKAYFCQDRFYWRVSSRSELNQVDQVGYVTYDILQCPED

On to `Cn1c(O)nc2cc(C(=O)NCCOCCOCCNC(=O)Cn3cnc4c(oc5ccccc54)c3=O)cnc21` [182+826 Linker 10], for which the “remaining activity (%)” value on MMP-2 (MMP-2, concentration 0.12 µM) turned out to be 104.96; on MMP-2 (MMP-2, concentration 0.49 µM), 102.80; at MMP-2 (MMP-2, concentration 1.95 µM) it was 96.45; at MMP-2 (MMP-2, concentration 7.81 µM), 96.46; at MMP-2 (MMP-2, concentration 31.25 µM) it was 89.20; on MMP-2 (MMP-2, concentration 125.00 µM), 71.67. Also, the “remaining activity (%)” value on MMP-2 (MMP-2, concentration 500.00 µM) was 58.28. Also, the “remaining enzyme activity (% of control)” value at MMP-9 (MMP-9, concentration 0.12 µM) is reported as 94.26; at MMP-9 (MMP-9, concentration 0.49 µM), 94.53; on MMP-9 (MMP-9, concentration 1.95 µM) it was 79.71; at MMP-9 (MMP-9, concentration 7.81 µM), 87.21; on MMP-9 (MMP-9, concentration 31.25 µM), 75.62; at MMP-9 (MMP-9, concentration 125.00 µM), 66.17. The “remaining enzyme activity (% of control)” value at MMP-9 (MMP-9, concentration 500.00 µM) stood at 43.49. Further, the IC50 on MMP-9 (setting [1]) was determined as 283 ± 84.3 µM.

For the molecule `O=C(/C=C/CCCCC(=O)NCc1c[nH]nn1)CC(=O)NCC12CC3CC(CC(C3)C1)C2` [66+787 Linker 12], the “remaining activity (%)” value stood at 95.55 at MMP-2 (MMP-2; concentration 0.0111 µM); 86.42 at MMP-2 (MMP-2; concentration 0.0553 µM); 84.28 on MMP-2 (MMP-2; concentration 0.28 µM); 96.70 at MMP-2 (MMP-2; concentration 1.38 µM); 90.43 at MMP-2 (MMP-2; concentration 6.91 µM); 98.71 at MMP-2 (MMP-2; concentration 34.57 µM). The “remaining activity (%)” value was 67.90 on MMP-2 (MMP-2; concentration 172.86 µM) and 16.96 at MMP-2 (MMP-2; concentration 864.30 µM). The IC50 on MMP-2 (setting [2]) stood at 339 ± 63.3 µM; at MMP-9 (setting [1]), 115 ± 78.3 µM. For the same molecule, the “remaining enzyme activity (% of control)” value was 94.85 on MMP-9 (MMP-9; concentration 0.0553 µM); 91.07 at MMP-9 (MMP-9; concentration 0.28 µM); 90.00 on MMP-9 (MMP-9; concentration 1.38 µM); 80.21 on MMP-9 (MMP-9; concentration 6.91 µM); 81.44 at MMP-9 (MMP-9; concentration 34.57 µM); 37.12 at MMP-9 (MMP-9; concentration 172.86 µM). Besides, on MMP-9 (MMP-9; concentration 864.30 µM), the “remaining enzyme activity (% of control)” value was determined as 14.22.

Take `Cc1cc(=O)[nH]c(-n2nc(C)c(CCC(=O)NCCNC(=O)c3cnc4c(c3)nc(O)n4C)c2C)n1` [693+826 Linker 1]: the “remaining activity (%)” value at MMP-2 (MMP-2; concentration 0.12 µM) was 100.61; at MMP-2 (MMP-2; concentration 0.49 µM), 101.27; on MMP-2 (MMP-2; concentration 1.95 µM) it was 97.44; at MMP-2 (MMP-2; concentration 7.81 µM) it was 105.49; on MMP-2 (MMP-2; concentration 31.25 µM), 103.49; on MMP-2 (MMP-2; concentration 125.00 µM), 92.36. On MMP-2 (MMP-2; concentration 500.00 µM), the “remaining activity (%)” value is given as 84.19. The “remaining enzyme activity (% of control)” value came to 100.10 at MMP-9 (MMP-9; concentration 0.12 µM); 107.84 at MMP-9 (MMP-9; concentration 0.49 µM); 98.21 at MMP-9 (MMP-9; concentration 1.95 µM); 95.90 at MMP-9 (MMP-9; concentration 7.81 µM); 93.30 on MMP-9 (MMP-9; concentration 31.25 µM); 76.07 at MMP-9 (MMP-9; concentration 125.00 µM). Besides, the “remaining enzyme activity (% of control)” value at MMP-9 (MMP-9; concentration 500.00 µM) turned out to be 54.11.

`Cc1cc(=O)[nH]c(-n2nc(C)c(CCC(=O)NCCNC(=O)CC(=O)/C=C/CCCCNC(=O)c3cncc(O)c3)c2C)n1` [693_828 12]: the IC50 at MMP-2 (setting [3]) turned out to be 10 µM; on MMP-9 (setting [4]), 14.8 µM.

As to `O=C(C=CCCCCNC(=O)c1cncc(O)c1)CC(=O)NCC12CC3CC(CC(C3)C1)C2` [66+828 Linker 12], the “remaining activity (%)” value on MMP-2 (MMP-2; concentration 0.0156 µM) is on record as 99.10; at MMP-2 (MMP-2; concentration 0.08 µM), 102.47; at MMP-2 (MMP-2; concentration 0.39 µM), 95.82; on MMP-2 (MMP-2; concentration 1.95 µM), 94.73; at MMP-2 (MMP-2; concentration 9.75 µM) it was 93.23; on MMP-2 (MMP-2; concentration 48.76 µM), 86.38. Moreover, the “remaining activity (%)” value was 70.35 on MMP-2 (MMP-2; concentration 243.80 µM) and 22.32 at MMP-2 (setting [5]). The IC50 on MMP-2 (setting [2]) was found to be 488 ± 45.3 µM; on MMP-9 (setting [1]), 77.4 ± 13.9 µM. Besides, the “remaining enzyme activity (% of control)” value at MMP-9 (MMP-9; concentration 0.08 µM) was 103.52; on MMP-9 (MMP-9; concentration 0.39 µM) it was 103.70; at MMP-9 (MMP-9; concentration 1.95 µM), 101.49; on MMP-9 (MMP-9; concentration 9.75 µM) it was 97.37; on MMP-9 (MMP-9; concentration 48.76 µM) it was 61.33; at MMP-9 (MMP-9; concentration 243.80 µM), 18.36. Besides, the “remaining enzyme activity (% of control)” value at MMP-9 (setting [6]) is on record as 3.09.

On to `Cc1cc(=O)[nH]c(-n2nc(C)c(CCC(=O)NCCCCCCCCNC(=O)c3cncc(O)c3)c2C)n1` [693+828 Linker 4], for which the “remaining activity (%)” value was determined as 102.68 on MMP-2 (MMP-2; concentration 0.0156 µM); 100.17 on MMP-2 (MMP-2; concentration 0.08 µM); 95.94 at MMP-2 (MMP-2; concentration 0.39 µM); 99.37 at MMP-2 (MMP-2; concentration 1.95 µM); 100.31 on MMP-2 (MMP-2; concentration 9.75 µM); 87.56 at MMP-2 (MMP-2; concentration 48.76 µM). The results for the “remaining activity (%)” value at MMP-2 (MMP-2; concentration 243.80 µM) and on MMP-2 (setting [5]) were 44.10 and 12.13, respectively. For the same molecule, the IC50 at MMP-2 (setting [2]) is 212 ± 15.9 µM; on MMP-9 (setting [1]), 261 ± 31.3 µM. In addition, the “remaining enzyme activity (% of control)” value at MMP-9 (MMP-9; concentration 0.08 µM) is 97.75; on MMP-9 (MMP-9; concentration 0.39 µM), 94.18; on MMP-9 (MMP-9; concentration 1.95 µM), 90.34; at MMP-9 (MMP-9; concentration 9.75 µM) it was 92.01; on MMP-9 (MMP-9; concentration 48.76 µM) it was 87.31; on MMP-9 (MMP-9; concentration 243.80 µM), 52.96. The “remaining enzyme activity (% of control)” value at MMP-9 (setting [6]) was found to be 7.04.

Turning to `O=C(CSCCNC(=O)c1cncc(O)c1)NCC12CC3CC(CC(C3)C1)C2` [66_828 24], the IC50 at MMP-2 (setting [3]) was determined as 184 µM; at MMP-9 (setting [4]) it was 216 µM.

Regarding `Cc1cc(=O)[nH]c(-n2nc(C)c(CCC(=O)NCCOCCOCCNC(=O)CCC(=O)NCc3c[nH]nn3)c2C)n1` [693_787 10], the half-inhibitory concentration (IC50) was 171 µM at MMP-2 (setting [3]) and 230 µM on MMP-9 (setting [4]).

Take `O=C(C=CCCCCC(=O)NCc1c[nH]nn1)CC(=O)NCC12CC3CC(CC(C3)C1)C2` [66_787 12]: the concentration for half-maximal inhibition (IC50) at MMP-2 (setting [3]) was 339 µM; on MMP-9 (setting [4]) it was 115 µM.

With `Cn1c(O)nc2cc(C(=O)NCCNC(=O)Cn3cnc4c(oc5ccccc54)c3=O)cnc21` [182+826 Linker 1], the “remaining activity (%)” value is 94.84 on MMP-2 (MMP-2, concentration 0.12 µM); 90.90 at MMP-2 (MMP-2, concentration 0.49 µM); 93.31 at MMP-2 (MMP-2, concentration 1.95 µM); 101.10 at MMP-2 (MMP-2, concentration 7.81 µM); 86.65 at MMP-2 (MMP-2, concentration 31.25 µM); 86.38 on MMP-2 (MMP-2, concentration 125.00 µM). The “remaining activity (%)” value at MMP-2 (MMP-2, concentration 500.00 µM) was determined as 61.56. Further, the “remaining enzyme activity (% of control)” value turned out to be 83.90 at MMP-9 (MMP-9, concentration 0.12 µM); 96.21 on MMP-9 (MMP-9, concentration 0.49 µM); 89.70 on MMP-9 (MMP-9, concentration 1.95 µM); 92.69 on MMP-9 (MMP-9, concentration 7.81 µM); 77.21 at MMP-9 (MMP-9, concentration 31.25 µM); 71.00 at MMP-9 (MMP-9, concentration 125.00 µM). Further, at MMP-9 (MMP-9, concentration 500.00 µM), the “remaining enzyme activity (% of control)” value came to 60.44.
